Experiments:
[1] = Aqueous / pH-dependent solubility; format: physicochemical; settings: between pH 1-3
[2] = Human pharmacokinetics of Formulation 3 with and without 20 mg famotidine; format: in vivo; settings: conventional formulation of Compound II
Procedure: The oral absorption obtained from Formulation 3 with and without pH-modifying medications (20 mg famotidine) was evaluated as part of human clinical study. For the treatment with famotidine, single oral doses of 20 mg famotidine (1×20 mg tablet) were administered on the previous evening and 2 hours prior to a single oral dose of Formulation 3.

[3] = Human pharmacokinetics of Formulation 4 with and without famotidine, co-dosed with Formulation 1; format: in vivo; settings: Compound II from Formulation 4 co-dosed with Formulation 1; healthy subjects
Procedure: For the treatment with famotidine, single oral doses of 20 mg famotidine (1×20 mg tablet) was administered 10 hours and 2 hours prior to an oral dose of Formulation 1 and Formulation 4.

## COC(=O)N[C@H](C(=O)N1CCC[C@H]1c1nc(-c2ccc3c(c2)O[C@@H](c2ccccc2)n2c-3cc3cc(-c4c[nH]c([C@@H]5CCCN5C(=O)[C@@H](NC(=O)OC)C(C)C)n4)ccc32)c[nH]1)C(C)C [Compound II, dimethyl N,N′-([(6S)-6-phenylindolo[1,2-c][1,3]benzoxazine-3,10-diyl]bis{1H-imidazole-5,2-diyl-(2S)-pyrrolidine-2,1-diyl[(2S)-3-methyl-1-oxobutane-1,2-diyl]})dicarbamate]
[1]
  pH-dependent solubility profile: sharp pH-dependent solubility profile
[2]
  absorption upon co-administration with a pH-raising medication: poor absorption
[3]
  exposure following famotidine versus without famotidine: comparable

— US20160346289A1, “Fixed-Dose Combinations of Antiviral Compounds” (MERCK SHARP & DOHME CORP., priority 2014, published 2016)
